US20140294905A1, “ANTIMICROBIAL TEXTILES” (BACTOGEN BIYOTEKNOLOJIK URUNLER SANAYI VE TICARET ANONIM …, priority 2011, published 2014)

Legend:
Aspergillus niger [1] = experiment: Antimicrobial tests of textiles on planted petri dishes; type: cell-based; design: key: + indicates that (antimicrobial) inhibition zones are observed around the textiles added with sodium borate (FIG. 1-8); conditions: in vitro, room temperature for 72 hours
Method: (§1) Sodium borate-added textiles prepared with three different techniques and the unprocessed textiles to which sodium borate is not added are placed on the petri dishes planted with microorganisms and their antimicrobial efficiency is tested.
(§2) Sodium borate-added textiles fixed with methanol, textiles sprayed with sodium borate dissolved in pH-enhanced water and textiles dyed with water-based textile dye the base of which is prepared by the addition of sodium borate are tested. As a negative control, any possible impact which inhibits the growing of microorganisms on textiles which are not processed is observed. […] Tested antimicrobial activity is evaluated upon the measuring of the inhibition zone of the microorganisms handled. All tests are repeated at least twice.

Penicillium expansum [2] = experiment: as above; type: cell-based; design: key: + indicates that (antimicrobial) inhibition zones are observed around the textiles added with sodium borate (FIG. 1-8); conditions: in vitro, room temperature for 72 hours
Method: as §1, §2

Fusarium oxysporum [3] = experiment: as above; type: cell-based; design: key: + indicates that (antimicrobial) inhibition zones are observed around the textiles added with sodium borate (FIG. 1-8); conditions: in vitro, room temperature for 72 hours
Method: as §1, §2

Penicillium vinaceum [4] = experiment: as above; type: cell-based; design: key: + indicates that (antimicrobial) inhibition zones are observed around the textiles added with sodium borate (FIG. 1-8); conditions: in vitro, room temperature for 72 hours
Method: as §1, §2

Botrytis cinerea [5] = experiment: as above; type: cell-based; design: key: + indicates that (antimicrobial) inhibition zones are observed around the textiles added with sodium borate (FIG. 1-8); conditions: in vitro, room temperature for 72 hours
Method: as §1, §2

Candida glabrata [6] = experiment: as above; type: cell-based; design: key: + indicates that (antimicrobial) inhibition zones are observed around the textiles added with sodium borate (FIG. 1-8); conditions: in vitro, 37° C. for 48 hours
Method: as §1, §2

Candida albicans [7] = experiment: as above; type: cell-based; design: key: + indicates that (antimicrobial) inhibition zones are observed around the textiles added with sodium borate (FIG. 1-8); conditions: in vitro, 37° C. for 48 hours
Method: as §1, §2

Aspergillus niger [8] = experiment: Modified disc diffusion method; conditions: 25±1° C. for 72 hours
Method: (§3) A 100 μl solution containing 10^8 cfu/ml bacteria, 10^6 cfu/ml yeast and 10^4 spores/ml mould is prepared from new cultures and is inoculated respectively onto triptonic soy agar (TSA), Sabouraud Dextrose Agar (SDA) and Potato Dextrose Agar (PDA) through the use of diffusion method. 20 μl of sterile water is dropped onto empty discs and the discs are then dipped into sodium borate in powder format. Discs dipped into sodium borate are then placed on planted petri dishes. As a negative control, blank discs onto which 20 μl of sterile water is dropped are used. As a positive control, Ofloxacin (10 μg/disc) and nystatin (30 μg/disc) are respectively used for bacteria and fungi.
(§4) Planted petri dishes on which modified disc diffusion method is applied are kept at 36±1° C. for 24 hours for bacteria, at 36±1° C. for 48 hours for yeasts and at 25±1° C. for 72 hours for moulds. Antimicrobial activity inhibition zone (a zone where no microorganisms grow) is measured and evaluated for microorganisms tested with modified disc diffusion method. All tests are repeated at least twice.

Botrytis cinerea [9] = experiment: Modified disc diffusion method; conditions: 25±1° C. for 72 hours
Method: as §3, §4

Penicillium vinaceum [10] = experiment: Modified disc diffusion method; conditions: 25±1° C. for 72 hours
Method: as §3, §4

Penicillium expansum [11] = experiment: Modified disc diffusion method; conditions: 25±1° C. for 72 hours
Method: as §3, §4

Fusarium oxysporum [12] = experiment: Modified disc diffusion method; conditions: 25±1° C. for 72 hours
Method: as §3, §4

Candida glabrata [13] = experiment: Modified disc diffusion method; conditions: 36±1° C. for 48 hours
Method: as §3, §4

Candida albicans [14] = experiment: Modified disc diffusion method; conditions: 36±1° C. for 48 hours
Method: as §3, §4

Staphylococcus aureus [15] = experiment: Modified disc diffusion method; conditions: 36±1° C. for 24 hours
Method: as §3, §4

Pseudomonas aeruginosa [16] = experiment: Modified disc diffusion method; conditions: 36±1° C. for 24 hours
Method: as §3, §4

Escherichia coli [17] = experiment: Modified disc diffusion method; conditions: 36±1° C. for 24 hours
Method: as §3, §4

Pseudomonas aeruginosa [18] = experiment: Antimicrobial tests of textiles on planted petri dishes; type: cell-based; design: key: + indicates that (antimicrobial) inhibition zones are observed around the textiles added with sodium borate (FIG. 1-8); conditions: in vitro, 37° C. for 24 hours
Method: as §1, §2

Escherichia coli [19] = experiment: as above; type: cell-based; design: key: + indicates that (antimicrobial) inhibition zones are observed around the textiles added with sodium borate (FIG. 1-8); conditions: in vitro, 37° C. for 24 hours
Method: as §1, §2

MRSA = experiment: as above; type: cell-based; design: key: + indicates that (antimicrobial) inhibition zones are observed around the textiles added with sodium borate (FIG. 1-8); conditions: in vitro, 37° C. for 24 hours
Method: as §1, §2

Staphylococcus aureus [20] = experiment: as above; type: cell-based; design: key: + indicates that (antimicrobial) inhibition zones are observed around the textiles added with sodium borate (FIG. 1-8); conditions: in vitro, 37° C. for 24 hours
Method: as §1, §2

C[C@@H]1[C@H](O)[C@@H](C)/C=C/C=C/CC/C=C/C=C/C=C/C=C/C(O[C@H]2O[C@H](C)[C@@H](O)[C@H](N)[C@@H]2O)CC2O[C@](O)(CC(O)C(O)CCC(O)CC(O)CC(O)CC(=O)O[C@H]1C)CC(O)C2C(=O)O (stereo partly shown) [Nystatin]
+: Antimicrobial test result (inhibition zone around textile) (Aspergillus niger [1]) | Antimicrobial test result (inhibition zone around textile) (Penicillium expansum [2]) | Antimicrobial test result (inhibition zone around textile) (Fusarium oxysporum [3]) | Antimicrobial test result (inhibition zone around textile) (Penicillium vinaceum [4]) | Antimicrobial test result (inhibition zone around textile) (Botrytis cinerea [5]) | Antimicrobial test result (inhibition zone around textile) (Candida glabrata [6]) | Antimicrobial test result (inhibition zone around textile) (Candida albicans [7]) | Antimicrobial effect (inhibition zone) (Aspergillus niger [8]) | Antimicrobial effect (inhibition zone) (Botrytis cinerea [9]) | Antimicrobial effect (inhibition zone) (Penicillium vinaceum [10]) | Antimicrobial effect (inhibition zone) (Penicillium expansum [11]) | Antimicrobial effect (inhibition zone) (Fusarium oxysporum [12]) | Antimicrobial effect (inhibition zone) (Candida glabrata [13]) | Antimicrobial effect (inhibition zone) (Candida albicans [14])

O.O.O.O.O.O.O.O.O.O.[Na+].[Na+].[O-]B1OB2OB([O-])OB(O1)O2 [Sodium Borate, sodium borate]
+: Antimicrobial effect (inhibition zone) (Aspergillus niger [8]) | Antimicrobial effect (inhibition zone) (Botrytis cinerea [9]) | Antimicrobial effect (inhibition zone) (Penicillium vinaceum [10]) | Antimicrobial effect (inhibition zone) (Staphylococcus aureus [15]) | Antimicrobial effect (inhibition zone) (Pseudomonas aeruginosa [16]) | Antimicrobial effect (inhibition zone) (Penicillium expansum [11]) | Antimicrobial effect (inhibition zone) (Fusarium oxysporum [12]) | Antimicrobial effect (inhibition zone) (Candida glabrata [13]) | Antimicrobial effect (inhibition zone) (Candida albicans [14]) | Antimicrobial effect (inhibition zone) (Escherichia coli [17])

CC1COc2c(N3CCN(C)CC3)c(F)cc3c(=O)c(C(=O)O)cn1c23 (stereo not shown) [Ofloxacin]
+: Antimicrobial test result (inhibition zone around textile) (Pseudomonas aeruginosa [18]) | Antimicrobial test result (inhibition zone around textile) (Escherichia coli [19]) | Antimicrobial test result (inhibition zone around textile) (MRSA) | Antimicrobial test result (inhibition zone around textile) (Staphylococcus aureus [20]) | Antimicrobial effect (inhibition zone) (Staphylococcus aureus [15]) | Antimicrobial effect (inhibition zone) (Pseudomonas aeruginosa [16]) | Antimicrobial effect (inhibition zone) (Escherichia coli [17])
